In US8138183B2, “Morpholino pyrimidine derivatives used in diseases linked to mTOR kinase and/or PI3K” (AstraZeneca AB, priority 2007, dated 2012):
Read-outs that look alike come from different tables or passages of the source.

Tests used:
recombinant mTOR = recombinant mTOR (Homo sapiens, UniProt P42345); test: In Vitro mTOR Kinase Assay (Echo), Test (a)(ii) (AlphaScreen); assay type: biochemical; details: Echo acoustic dispensing
Method: (a)(ii) In Vitro mTOR Kinase Assay (Echo)
The assay used AlphaScreen technology (Gray et al., Analytical Biochemistry, 2003, 313: 234-245) to determine the ability of test compounds to inhibit phosphorylation by recombinant mTOR.
The HEK293 FLAG-tagged mTOR (1362-2549) stable cell line was routinely maintained at 37° C. with 5% CO2 up to a confluency of 70-90% in Dulbecco's modified Eagle's growth medium (DMEM; Invitrogen Limited, Paisley, UK Catalogue No. 41966-029) containing 10% heat-inactivated foetal calf serum (FCS; Sigma, Poole, Dorset, UK, Catalogue No. F0392), 1% L-glutamine (Gibco, Catalogue No. 25030-024) and 2 mg/ml Geneticin (G418 sulfate; Invitrogen Limited, UK Catalogue No. 10131-027). Following expression in the mammalian HEK293 cell line, expressed protein was purified using the FLAG epitope tag using standard purification techniques.
Aliquots ([…]) of each compound dilution were acoustically […] using a Labcyte Echo 550 into a well of a Greiner 384-well low volume (LV) white polystyrene plate (Greiner Bio-one). A […] mixture of recombinant purified mTOR enzyme, 1 μM biotinylated peptide substrate (Biotin-Ahx-[…]NH2; Bachem UK Ltd), ATP (20 μM) and a buffer solution [comprising Tris-HCl pH7.4 buffer (50 mM), EGTA (0.1 mM), bovine serum albumin (0.5 mg/mL), DTT (1.25 mM) and manganese chloride (10 mM)] was incubated at room temperature for […].
These assay solutions were incubated for 2 hours at room temperature.
Each reaction was stopped by the addition of […] of a mixture of EDTA (50 mM), bovine serum albumin (BSA; 0.5 mg/mL) and Tris-HCl pH7.4 buffer (50 mM) containing
p70 S6 Kinase (T389) 1A5 Monoclonal Antibody (Cell Signalling Technology, Catalogue No. 9206B) and AlphaScreen Streptavidin donor and Protein A acceptor beads (200 ng; Perkin Elmer, Catalogue No. 6760002B and 6760137R respectively) were added and the assay plates were left overnight at room temperature in the dark. The resultant signals arising from laser light excitation at 680 nm were read using a Packard Envision instrument.
The phosphorylated biotinylated peptide that is associated with AlphaScreen Streptavidin donor beads forms a complex with the p70 S6 Kinase (T389) 1A5 Monoclonal Antibody that is associated with Alphascreen Protein A acceptor beads. Upon laser light excitation at 680 nm, the donor bead : acceptor bead complex produces a signal that can be measured. Accordingly, the presence of mTOR kinase activity results in an assay signal. In the presence of an mTOR kinase inhibitor, signal strength is reduced. mTOR enzyme inhibition for a given test compound was expressed as an IC50 value.

[1] = system: phosphorylation of Serine 473 in Akt; test: In Vitro phospho-Ser473 Akt Assay, Test (c); assay type: cell-based; details: MDA-MB-468 human breast adenocarcinoma cells, measured on two occasions, read-out: IC50 versus Serine 473 in Akt
Method: (c) In Vitro phospho-Ser473 Akt Assay
This assay determines the ability of test compounds to inhibit phosphorylation of Serine 473 in Akt as assessed using Acumen Explorer technology (Acumen Bioscience Limited), a plate reader that can be used to rapidly quantitate features of images generated by laser-scanning.
A MDA-MB-468 human breast adenocarcinoma cell line (LGC Promochem, Teddington, Middlesex, UK, Catalogue No. HTB-132) was routinely maintained at 37° C. with 5% CO2 up to a confluency of 70-90% in DMEM containing 10% heat-inactivated FCS and 1% L-glutamine.
For the assay, the cells were detached from the culture flask using ‘Accutase’ (Innovative Cell Technologies Inc., San Diego, Calif., USA; Catalogue No. AT104) using standard tissue culture methods and resuspended in media to give 1.7×10^5 cells per mL. […]
All subsequent aspiration and wash steps were carried out using a Tecan 96 well plate washer (aspiration speed 10 mm/sec). […] An aliquot of PBS (50 μl) was added to each well and the plates were sealed with black plate sealers and the fluorescence signal was detected and analysed.
Fluorescence dose response data obtained with each compound were analysed and the degree of inhibition of Serine 473 in Akt was expressed as an IC50 value.

recombinant mTOR, sequence (P42345 1362-2549): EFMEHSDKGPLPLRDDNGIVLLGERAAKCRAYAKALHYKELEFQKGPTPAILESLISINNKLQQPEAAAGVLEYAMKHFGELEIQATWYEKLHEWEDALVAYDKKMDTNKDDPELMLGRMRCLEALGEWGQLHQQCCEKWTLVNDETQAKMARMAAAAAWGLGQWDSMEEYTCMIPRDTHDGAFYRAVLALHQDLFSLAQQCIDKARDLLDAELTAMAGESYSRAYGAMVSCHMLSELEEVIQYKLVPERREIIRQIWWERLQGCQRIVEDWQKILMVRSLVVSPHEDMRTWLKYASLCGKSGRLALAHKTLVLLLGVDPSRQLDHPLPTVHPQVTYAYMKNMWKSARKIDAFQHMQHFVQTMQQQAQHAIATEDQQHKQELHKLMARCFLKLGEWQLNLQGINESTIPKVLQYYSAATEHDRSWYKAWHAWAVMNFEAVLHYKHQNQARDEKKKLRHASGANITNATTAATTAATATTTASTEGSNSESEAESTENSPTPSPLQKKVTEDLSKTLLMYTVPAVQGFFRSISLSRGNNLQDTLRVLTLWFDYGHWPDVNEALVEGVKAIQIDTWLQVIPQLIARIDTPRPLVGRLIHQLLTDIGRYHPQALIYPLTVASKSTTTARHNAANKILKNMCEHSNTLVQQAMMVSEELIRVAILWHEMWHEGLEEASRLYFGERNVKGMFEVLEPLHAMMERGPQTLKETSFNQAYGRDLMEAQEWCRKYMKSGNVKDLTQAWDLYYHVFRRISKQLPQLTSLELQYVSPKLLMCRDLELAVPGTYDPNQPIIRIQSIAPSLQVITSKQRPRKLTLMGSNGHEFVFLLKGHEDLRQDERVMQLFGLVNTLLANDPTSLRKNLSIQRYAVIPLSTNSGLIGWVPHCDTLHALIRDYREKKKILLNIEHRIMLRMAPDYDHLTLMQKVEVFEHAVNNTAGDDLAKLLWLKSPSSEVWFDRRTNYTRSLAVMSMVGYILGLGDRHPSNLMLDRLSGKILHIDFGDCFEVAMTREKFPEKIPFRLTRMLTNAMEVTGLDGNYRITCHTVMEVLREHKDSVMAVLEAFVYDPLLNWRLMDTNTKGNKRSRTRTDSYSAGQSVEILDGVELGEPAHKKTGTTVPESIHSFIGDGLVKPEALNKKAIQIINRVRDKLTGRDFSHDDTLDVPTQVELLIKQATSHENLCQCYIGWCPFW

IC50 (recombinant mTOR): 81.6 nM
IC50 ([1]; Homo sapiens, MDA-MB-468, Test (c)): 1930 nM
IC50 ([1]; Test (c)): 1740 nM
Structure (SMILES): C[C@H]1COCCN1c1cc(CS(C)(=O)=O)nc(-c2ccc(NC(=S)Nc3ccccc3)cc2)n1 [Example 1b, 1-[4-[4-[(3S)-3-methylmorpholin-4-yl]-6-(methylsulfonylmethyl)pyrimidin-2-yl]phenyl]-3-phenyl-thiourea]
